Assay results published in US5068233A, “Synergistic combination of azelastine and theophylline or azelastine and α-mimetics” (Asta Pharma Aktiengesellschaft, priority 1987, dated 1991).
Counter-ions that a name gives are not always drawn.

System: isolated guinea pig ileum (histamine spasm)
Assay: histamine spasm test in isolated guinea pig ileum (Magnus), % inhibition of histamine spasm
Parameters: antihistaminic activity (mean value), starting value / increase of antihistaminic activity (mean value): concentration or dose not given beside the values
Protocol: These trials were conducted in association with the histamine spasm test in isolated guinea pig ileum. Here, for example, the azelastine dosage (hydrochloride) is maintained constant and the dosage of theophylline or β-mimetic (for example reproterol) is changed and in each case intestinal spasm inhibition is determined as a % of uninhibited histamine spasm (Method of determining synergism according to Magnus).
Guinea pigs of both sexes having a mean weight of 400-600 g are stunned by a blow on the neck and exsanguinated. The lower part of the small intestine above the bottom 10 cm before the transition to the large intestine is dissected, flushed with cold Tyrode's solution and incubated in a refrigerator for 1 hour. 3-4 cm long sections are then cut and suspended in the immersion baths (Tyrode's solution^1) 37° C., carbogen gassing^2) under isotonic conditions, a tension of 2 g being applied. Following an adjustment time of 30 minutes the contraction in response to a standard spasmogen concentration of histamine (2×10^-7 mol/liter) is determined. […] The effects of the individual components and their combination are compared with one another.
1 Tyrode's solution: standardized, glucose-containing nutrient solution that has the same osmotic pressure as blood
2 Carbogen: gaseous mixture of 95% oxygen and 5% carbon dioxide.

CN1CCCC(n2nc(Cc3ccc(Cl)cc3)c3ccccc3c2=O)CC1 (centres unmarked) [Azelastine.HCl]
% inhibition (histamine 2 × 10^-10 mol/ml) (Table 1, Azelastine.HCl 0.001 μg/ml alone, group ****, N = 8): 46.3 ± 34.6%
% inhibition (histamine 2 × 10^-10 mol/ml) (Table 1, Azelastine.HCl 0.001 μg/ml alone, group ***, N = 8): 9.4 ± 12.4%
% inhibition (histamine 2 × 10^-10 mol/ml) (Table 1, Azelastine.HCl 0.001 μg/ml alone, group **, N = 4): 49.3 ± 1.9%
% inhibition (histamine 2 × 10^-10 mol/ml) (Table 1, Azelastine.HCl 0.001 μg/ml alone, group *, N = 8): 38.9 ± 19.9%
% inhibition (histamine 2 × 10^-10 mol/ml) (Table 2, Azelastine.HCl 0.001 μg/ml alone, group ***, N = 8): 45.9 ± 21.1%
% inhibition (histamine 2 × 10^-10 mol/ml) (Table 2, Azelastine.HCl 0.001 μg/ml alone, group **, N = 8): 26.6 ± 15.1%
% inhibition (histamine 2 × 10^-10 mol/ml) (Table 2, Azelastine.HCl 0.001 μg/ml alone, group *, N = 8): 35.1 ± 25.7%

Cn1c(=O)c2c(ncn2CCCNCC(O)c2cc(O)cc(O)c2)n(C)c1=O (centres unmarked) [Reproterol.HCl]
% inhibition (histamine 2 × 10^-10 mol/ml) (Table 2, Reproterol.HCl 0.02 μg/ml alone, group *, N = 8): 14.5 ± 16.6%
% inhibition (histamine 2 × 10^-10 mol/ml) (Table 2, Reproterol.HCl 0.04 μg/ml alone, group **, N = 8): 14.5 ± 18.1%
% inhibition (histamine 2 × 10^-10 mol/ml) (Table 2, Reproterol.HCl 0.06 μg/ml alone, group ***, N = 8): 48.5 ± 21.3%

Cn1c(=O)c2[nH]cnc2n(C)c1=O [Theophylline]
% inhibition (histamine 2 × 10^-10 mol/ml) (Table 1, Theophylline 10 μg/ml alone, group *, N = 8): 9.0 ± 12.8%
% inhibition (histamine 2 × 10^-10 mol/ml) (Table 1, Theophylline 20 μg/ml alone, group **, N = 4): 25.0 ± 15.1%
% inhibition (histamine 2 × 10^-10 mol/ml) (Table 1, Theophylline 40 μg/ml alone, group ***, N = 8): 39.6 ± 26.9%
% inhibition (histamine 2 × 10^-10 mol/ml) (Table 1, Theophylline 60 μg/ml alone, group ****, N = 8): 20.6 ± 15.5%
antihistaminic activity (mean value), starting value (theophylline, mean value before addition of azelastine): 24%
increase of antihistaminic activity (mean value) (theophylline, upon addition of azelastine): 38%

CN1CCCC(n2nc(Cc3ccc(Cl)cc3)c3ccccc3c2=O)CC1 (centres unmarked) [azelastine]
increase of antihistaminic activity (mean value) (azelastine activity increased in the combination, partner not given): 26%
antihistaminic activity (mean value), starting value (azelastine, mean value before increase): 36%

Cn1c(=O)c2c(ncn2CCCNCC(O)c2cc(O)cc(O)c2)n(C)c1=O (stereo not drawn) [reproterol, 7-{3[(β,3,5-trihydroxyphenethyl)-amino]propyl}-theophylline]
antihistaminic activity (mean value), starting value (reproterol, mean value before addition of azelastine): 26%
increase of antihistaminic activity (mean value) (reproterol, on addition of azelastine): 38%
